# Assay results reported in patent US7230018B2, “Substituted propane-1,3-diamine derivatives and the pharmaceutical use thereof” (Gruenenthal GmbH, priority 2001, dated 2007).
# Tested on: phenylquinone-induced writhing in the mouse
# Assay: phenylquinone-induced writhing test in the mouse
# Format: in vivo
# Conditions: male NMRI mice, 10 mg/kg intravenously, phenylquinone intraperitoneally 10 minutes after test substance, writhing counted 5 to 20 minutes after phenylquinone, hydrochloride
# Protocol: Testing of Analgesia in the Writhing Test in the Mouse
# The investigation for analgesic activity was carried out in the phenylquinone-induced writhing in the mouse (modified by I. C. Hendershot and J. Forsaith (1959) J. Pharmacol. Exp. Ther. 125, 237-240). Male NMRI mice weighing 25 to 30 g were employed for this. Groups of 10 animals per substance dose received 0.3 ml/mouse of a 0.02% aqueous solution of phenylquinone (phenylbenzoquinone, Sigma, Deisenhofen; preparation of the solution with the addition of 5% ethanol and storage in a water bath at 45° C.) administered intraperitoneally 10 minutes after intravenous administration of the test substances. The animals were placed individually in observation cages. The number of pain-induced stretching movements (so-called writhing reactions=straightening of the body with stretching of the hind extremities) was counted by means of a push-button counter 5 to 20 minutes after the administration of phenylquinone. Animals which received only physiological saline solution were also run as a control. All the substances were tested in the standard dosage of 10 mg/kg. The percentage inhibition (% inhibition) of the writhing reaction by a substance was calculated according to the following formula: […]
row,Structure (SMILES),% Inhibition of the writhing reaction (dosage in mg/kg intravenously)
1,"CN(C)C(c1cccnc1)C1CCCCC1NC(=O)c1ccccc1.Cl (stereo not drawn) [Example 1, (syn,syn)-N-[2-(dimethylaminopyridin-3-ylmethyl)cyclohexyl]benzamide hydrochloride]",54 (10) %
2,"CN(C)C(c1cccnc1)C1CCCCC1NC(=O)c1ccccc1F.Cl (stereo not drawn) [Example 2, (syn,syn)-N-[2-(dimethylaminopyridin-3-ylmethyl)cyclohexyl]-2-fluorobenzamide hydrochloride]",67 (10) %
3,"CN(C)C(c1cccnc1)C1CCCCC1NC(=O)c1ccccc1Cl.Cl (stereo not drawn) [Example 3, (syn,syn)-2-chloro-N-[2-(dimethylaminopyridin-3-ylmethyl)cyclohexyl]-benzamide hydrochloride]",85 (10) %
4,"Cc1ccccc1C(=O)NC1CCCCC1C(c1cccnc1)N(C)C.Cl (stereo not drawn) [Example 4, (syn,syn)-N-[2-(dimethylaminopyridin-3-ylmethyl)cyclohexyl]-2-methylbenzamide hydrochloride]",34 (10) %
5,"CN(C)C(c1cccnc1)C1CCCCC1NC(=O)c1ccccc1.Cl (stereo not drawn) [Example 5, (anti,anti)-N-[2-(dimethylaminopyridin-3-ylmethyl)cyclohexyl]-benzamide hydrochloride]",49 (10) %
6,"CN(C)C(c1cccnc1)C1CCCCC1NC(=O)c1ccccc1F.Cl (stereo not drawn) [Example 6, (anti,anti)-N-[2-(dimethylaminopyridin-3-ylmethyl)cyclohexyl]-2-fluorobenzamide hydrochloride]",62 (10) %
7,"CN(C)C(c1cccnc1)C1CCCCC1NC(=O)c1ccccc1Cl.Cl (stereo not drawn) [Example 7, (anti,anti)-2-chloro-N-[2-(dimethylaminopyridin-3-ylmethyl)cyclohexyl]benzamide hydrochloride]",56 (10) %
8,"Cc1ccccc1C(=O)NC1CCCCC1C(c1cccnc1)N(C)C.Cl (stereo not drawn) [Example 8, (anti,anti)-N-[2-(dimethylaminopyridin-3-ylmethyl)cyclohexyl]-2-methylbenzamide hydrochloride]",40 (10) %
9,"CC(=O)NC1CCCCC1C(c1cccnc1)N(C)C.Cl (stereo not drawn) [Example 9, (syn,syn)-N-[2-(dimethylaminopyridin-3-ylmethyl)cyclohexyl]acetamide hydrochloride]",75 (10) %
10,"CC(=O)NC1CCCCC1C(c1cccnc1)N(C)C.Cl (stereo not drawn) [Example 10, (anti,anti)-N-[2-(dimethylaminopyridin-3-ylmethyl)cyclohexyl]acetamide hydrochloride]",59 (10) %
